This passage reports inhibition and IC50 results from US9504676B2, “Molecules inhibiting a metabolic pathway involving the Syk protein tyrosine kinase and method for identifying said molecules” (CENTRE NATIONAL DE LA RECHERCHE SCIENTIFIQUE, priority 2008, dated 2016).

For experiment [1], the target named is T1, murine Syk tyrosine kinase protein (GST:Syk 6-242) (Mus musculus, UniProt P48025).
T1 construct: made in house
In words: ADA method: displacement of the binding of scFv G4G11 with Syk (ELISA). The note with it: read-out: In vit. inhib.: mean inhibition % of the binding of scFv G4G11 with Syk in the ADA method. The source says: The term “percentage of inhibition” of the binding of an antibody or antibody fragment with Syk protein, particularly refers to the ratio […], where A consists of the intensity of a signal proportional to the quantity of an antibody or antibody fragment bound with Syk protein in the absence of a molecule according to the invention and B the intensity of the same signal in the presence of a molecule according to the invention under the same conditions. […] This test may be performed for example according to the protocol described in example 3-2) hereinafter.
The inventors developed the ADA (Antigen Displacement Assay) method to identify small molecules capable of displacing the association with scFv G4G11 with Syk. […] To understand the mode of action of C-13, the inventors firstly identified the binding site of G4G11 using the SPOT method^16. An epitope located on the N-terminal SH2 domain of Syk, comprising amino acids 65-74 and 100% preserved in mouse, rat and human sequences, was identified.
The ADA method was then applied to each of these […] molecules to measure the ability thereof to inhibit the binding of scFv G4G11 with Syk.
(§1) • 1) Chemical products and antibodies. A chemical bank of 3000 molecules (a varied subset) was acquired from ChemBridge, Inc. (San Diego, Calif.). Stocks of solutions of small molecules were prepared at a rate of 10 mM in DMSO (dimethylsulphoxide), except for C-13 (methyl 2-{5-[(3-benzyl-4-oxo-2-thioxo-1,3-thiazolidin-5-ylidene)methyl]-2-furyl}benzoate, ChemBridge ID No. 6197026) prepared in DMF (dimethylformamide). Unless specified otherwise, all the reagents were supplied by Sigma. Dinitrophenyl (DNP) hapten was acquired from Calbiochem. Sepharose GammaBind G and all the secondary antibodies were supplied by GE Health Amersham Biosciences. The anti-Syk, anti-Lyn, anti-Btk, anti-PLC-γ1, anti-PLC-γ2, anti-LAT, anti-SLP-76, anti-p38, anti-JNK, anti-Vav, anti-Akt1 and 9E10 antibodies conjugated with HRP were acquired from Santa Cruz Biotechnology. The anti-phospho-p44/42 MAP Kinase, anti-p44/42 MAP Kinase, anti-phospho-p38, anti-phospho-JNK, anti-phospho-Akt1 antibodies were acquired from Cell Signaling. The anti-phospho-LAT and anti-phospho-PLC-γ1 antibodies were supplied by Biosource and the anti-phospho-SLP-76 antibodies by BD Pharmingen. The 4G10 anti-phosphotyrosine monoclonal antibody was acquired from Upstate Biotechnology. • 2) ADA method: ELISA type high-speed molecule screening test, based on antibody displacement (WO 2005106481). The recombinant fusion protein GST:Syk 6-242^8 comprising the residues 6 to 242 of murine Syk tyrosine kinase protein illustrated in FIG. 8B (SEQ ID No. 4) was immobilised on an ELISA plate at a final concentration of 10 μg ml^−1. For the screening of the chemical molecule bank, the small molecules, diluted in PBS at a final concentration of 10 μM were added to the wells for one hour at ambient temperature, before adding the fragment scFv G4G11 at a final concentration of 100 nM for an additional hour. The binding of G4G11 with Syk was assessed by adding the 9E10 monoclonal antibody conjugated with HRP detecting the amino acid sequence EQKLISEEDLN of human c-myc protein located at the C-terminal end of the scFv fragment. To generate Syk mutants, targeted mutagenesis was used on GST:Syk 6-242 protein and the binding of G4G11 with the mutants was assessed in the presence of 5 μM of C-13. • 3) Cells, culture conditions and functional tests. Anti-DNP 2682-I mouse monoclonal antibody was used as the culture supernatant of hybridomas containing 1 μg/ml of IgE. Femoral bone marrow cells were sampled and cultured in Opti-MEM medium (Gibco) supplemented with 10% foetal calf serum and 4% X63 transfectant supernatant secreting murine IL-3. RBL-2H3 (ATCC) leukaemic rat basophil cells were maintained in a single-layer culture in RPMI 1640 medium supplemented with 10% foetal calf serum (Gibco). […]

In the next experiment the test system is RBL-2H3 cells. In words: cells. Format: cell-based, rat. The note with it: Rattus norvegicus. How it is done: These 87 molecules were also tested in vitro to assess the ability thereof to inhibit RBL-2H3 cell degranulation (see table 1).
as §1, with “(Gibco). Measurements of β-hexosaminidase released by the RBL-2H3 cells were performed as described previously^7, except that, after 12-16 hours of incubation with anti-DNP IgE (0.5 μg/ml), the cells were incubated for 90 min at 37° C. in RPMI medium supplemented with the specified concentrations of C-13 or DMF (0.25%). The cells were stimulated for 45 min with DNP-BSA (50 ng ml^−1) or ionomycin (1.5 μM). The BMMC cells were incubated for one hour at 37° C. with anti-DNP IgE (100 ng/ml). They were then incubated with C-13 (3 μM) or DMF (0.3%) for 3 hours at 37° C., and stimulated with varied concentrations of DNP-BSA. The level of β-hexosaminidase released was measured 10 min later and the TNF-α titration was performed by means of a cytotoxicity test on L929 cells as described previously^10, 3 hours after stimulation. The results illustrated in FIG. 3 are representative of three independent experiments. • 4) Immunoprecipitations, in vitro kinase assays and immunodetection.” for “(Gibco).”

Setting [2] is: small molecules at 10 μM, scFv G4G11 100 nM.
Setting [3] is: RBL-2H3 cells, read-out: Degran. IC50: concentration inhibiting mast cell degranulation by 50%.

In brackets after ≈: the same amount, converted by molar mass. Like-named read-outs stand apart in the source and are kept apart here. Bounds are passed on as bounds.

For `CN(C)S(=O)(=O)c1ccc(C(=O)C2=C(O)C(=O)N(CCN3CCOCC3)C2c2ccccc2)cc1` (stereo not shown) [Molecule 32, 4-({4-hydroxy-1-[2-(4-morpholinyl)ethyl]-5-oxo-2-phenyl-2,5-dihydro-1H-pyrrol-3-yl}carbonyl)-N,N-dimethylbenzenesulphonamide], the inhibition (usually the share of the control response that was lost under treatment) at 10 µM in experiment [1] (setting [2]) turned out to be 50%. The IC50 with RBL-2H3 cells (setting [3]) was above 10 µg/mL.

`COc1ccc(OC)c(C2C(C(=O)c3ccc(C)cc3)=C(O)C(=O)N2Cc2cccnc2)c1` (stereo not shown) [Molecule 11, 5-(2,5-dimethoxyphenyl)-3-hydroxy-4-(4-methylbenzoyl)-1-(3-pyridinylmethyl)-1,5-dihydro-2H-pyrrol-2-one]: the inhibition at 10 µM in experiment [1] (setting [2]) was determined as 70.5%. For the same compound, in the experiment with RBL-2H3 cells (setting [3]), the IC50 was above 10 µg/mL.

On to `Cc1cc(C)cc(N(CC(=O)N2CCN(Cc3ccccc3)CC2)S(=O)(=O)c2ccccc2)c1` [Molecule 40, N-[2-(4-benzyl-1-piperazinyl)-2-oxoethyl]-N-(3,5-dimethylphenyl)benzenesulphonamide], for which, in experiment [1], the inhibition at 10 µM came out at 49.5%. Also, in the experiment on RBL-2H3 cells (RBL-2H3, read-out: Degran. IC50: concentration inhibiting mast cell degranulation by 50%), the IC50 was above 10 µg/mL.

For `COC(=O)c1ccc(NC(=O)CC2C(=O)N(c3ccccc3)C(=O)N2Cc2ccc3c(c2)OCO3)cc1` (stereo not shown) [Molecule 77, methyl 4-({[3-(1,3-benzodioxol-5-ylmethyl)-2,5-dioxo-1-phenyl-4-imidazolidinyl]acetyl}amino)benzoate], in experiment [1] (setting [2]), the inhibition at 10 µM is 26%. Further, in the experiment on RBL-2H3 cells (setting [3]), the IC50 is above 10 µg/mL.

Take `COc1ccc(C2C(C(=O)c3ccc(F)cc3)=C(O)C(=O)N2CCN2CCOCC2)cc1OC` (stereo not shown) [Molecule 31, 5-(3,4-dimethoxyphenyl)-4-(4-fluorobenzoyl)-3-hydroxy-1-(2-(4-morpholinyl)ethyl]-1,5-dihydro-2H-pyrrol-2-one]: the inhibition at 10 µM in experiment [1] (setting [2]) was 50%. For the same compound, in the experiment with RBL-2H3 cells (setting [3]), the IC50 was above 10 µg/mL.

Consider `COc1ccc(NC(=O)CSc2nc3ccccc3c(=O)n2Cc2ccco2)c(OC)c1` [Molecule 69], for which, in experiment [1] (setting [2]), the inhibition at 10 µM amounted to 30%. The IC50 in the experiment with RBL-2H3 cells (setting [3]) was around 5 µg/mL (≈ 11.1 µM).

Regarding `O=C1c2ccc(Oc3ccc4c(c3)C(=O)N(CC3CCCO3)C4=O)cc2C(=O)N1CC1CCCO1` (stereo not shown) [Molecule 62, 5,5′-oxybis [2-(tetrahydro-2-furanyl methyl)-1H-isoindole-1,3(2H)-dione]], the inhibition at 10 µM in experiment [1] (setting [2]) was determined as 38.5%. The IC50 with RBL-2H3 cells (setting [3]) was above 10 µg/mL.

As for `Cc1cccc(OCC(=O)Nc2cccc3c(NC(=O)COc4cccc(C)c4)cccc23)c1` [Molecule 20], the inhibition at 10 µM in experiment [1] (setting [2]) was 60%. Further, the IC50 in the experiment with RBL-2H3 cells (setting [3]) is above 10 µg/mL.

In the case of `COc1cccc(C(=O)N(Cc2cc3ccc(C)cc3nc2C)c2ccccc2OC)c1` [Molecule 70], the inhibition at 10 µM in experiment [1] (setting [2]) was found to be 30%. In addition, in the experiment with RBL-2H3 cells (setting [3]), the IC50 is above 10 µg/mL.

Consider `CCN(CC)CCCN1C(=O)C(O)=C(C(=O)c2ccc3c(c2)OCO3)C1c1cccnc1` (stereo not shown) [Molecule 51, 4-(1,3-benzodioxol-5-ylcarbonyl)-1-[3-(diethylamino)propyl]-3-hydroxy-5-(3-pyridinyl)-1,5-dihydro-2H-pyrrol-2-one], for which, in experiment [1] (setting [2]), the inhibition at 10 µM came to 46%. Moreover, the IC50 in the experiment with RBL-2H3 cells (setting [3]) was above 10 µg/mL.

In the case of `O=C(O)CCC(=O)N(Cc1ccccc1)Cc1cn(-c2ccccc2)nc1-c1cccs1` [Molecule 23, 4-(benzyl{[1-phenyl-3-(2-thienyl)-1H-pyrazol-4-yl]methyl}amino)-4-oxo butanoic acid], the inhibition at 10 µM in experiment [1] (setting [2]) was 57%. Besides, in the experiment on RBL-2H3 cells (setting [3]), the IC50 was above 10 µg/mL.

As for `COc1cccc(C2C(C(=O)c3ccc(Cl)cc3)=C(O)C(=O)N2CCN2CCOCC2)c1` (stereo not shown) [Molecule 71, 4-(4-chlorobenzoyl)-3-hydroxy-5-(3-methoxyphenyl)-1-[2-(4-morpholinyl)ethyl]-1,5-dihydro-2H-pyrrol-2-one], the inhibition at 10 µM in experiment [1] (setting [2]) is 29%. The IC50 in the experiment with RBL-2H3 cells (setting [3]) is above 10 µg/mL.

`COc1ccc(C2C(C(=O)c3ccc(Cl)cc3)=C(O)C(=O)N2CCN2CCOCC2)cc1` (stereo not shown) [Molecule 39, 4-(4-chlorobenzoyl)-3-hydroxy-5-(4-methoxyphenyl)-1-[2-(4-morpholinyl)ethyl]-1,5-dihydro-2H-pyrrol-2-one]: the inhibition at 10 µM in experiment [1] (setting [2]) worked out at 50%. In addition, the IC50 in the experiment with RBL-2H3 cells (setting [3]) was above 10 µg/mL.

For `CC(C)c1ccc(C2C(C(=O)c3ccccc3)=C(O)C(=O)N2CCN2CCOCC2)cc1` (stereo not shown) [Molecule 26], the inhibition at 10 µM in experiment [1] (setting [2]) was 56.5%. Moreover, the IC50 in the experiment on RBL-2H3 cells (setting [3]) was above 10 µg/mL.
